Assay: potentiometric solubility-pH profile titration (pSol)
Assay type: physicochemical
Conditions: FIG. 8
From the text: The above described titration e.g. of a weak base B from high to low pH-values is used for potentiometric determination of solubility profiles according to the so-called “pSol method” (see e.g. Avdeef, A., 1998, loc. cit.). However, in pSol titrations the phenomenon of a “perfect” buffer system is not encountered frequently because in order to obtain good titration results it is advisable to use only small amounts of the compound under investigation. This leads to a situation where the whole amount of the compound is dissolved before the maximal effective concentration corresponding to point 2 in FIG. 1 is reached. This is illustrated in FIG. 3, where reduction of the pH-value leads along the solubility profile until reaching the point denoted as 2′ in FIG. 3. […] Therefore, the total concentration of the compound remains constant at a value CT.
Measurements of solubility-pH profiles were carried out on a “pSol” apparatus (see e.g. Avdeef, A., 2001, loc. cit.). The potentiometric solubility measurement with the pSol apparatus takes as input parameters the weighted amount of the said compound, the volume of the solution, the measured pKa and the measured (or calculated) octanol/water partition coefficient, logP. […]

## COc1ccc2c3c1O[C@H]1[C@@H](O)C=C[C@H]4[C@@H](C2)N(C)CC[C@@]341 [codeine]
Total concentration about 58 mg/mL for the titration
  pH at which the precipitation begins: about 7
Total concentration of about 13 mg/mL for the titration
  pH at which the precipitation begins: about 8

Reference: patent US7381265B2, “Method for crystallization of a weakly acidic and/or weakly basic compound” (Hoffmann-La Roche Inc., priority 2005, dated 2008)
